In brackets after ≈: the same amount, converted by molar mass. Where only a bound is given, the exact number is not on record here.

For the data set the following is noted: buffer; pH 7.4; 200.0 µM.
Take `CC1c2cccn2CCN1S(=O)(=O)c1ccccc1` (centres undefined): the solubility (kinetic) (as a rule, solubility judged after dilution from a stock solution rather than from solid) was 40.3 µg/mL (≈ 146 µM). Compound `Cc1ccc(C(=O)NCCN2CCOCC2)cc1[N+](=O)[O-]` yielded a kinetic solubility above 44 µg/mL. The same measure for `CCc1ccc(C(=O)Nc2cc(C)ccc2F)s1`: 16.6 µg/mL (≈ 63 µM); for `Cc1cnc(C(=O)OCC(=O)c2cc(C)n(C)c2C)cn1`: above 43.1 µg/mL.

`CC(=O)/C=C1/C(=O)Nc2ccccc21` had a solubility (kinetic) above 28.1 µg/mL. Compound `Cc1cc(C)c(S(=O)(=O)Cc2ccccc2)c(OC(C)C)n1` yielded a kinetic solubility of 26 µg/mL (≈ 81.4 µM). Compound `COc1ccc2nc(C)cc(Nc3ccc(C(=O)O)cc3)c2c1` showed a kinetic solubility of 40.5 µg/mL (≈ 131 µM). The compound `COc1ccc(CCNc2nc(-c3ccc(O)cc3)cs2)cc1OC` returned a solubility (kinetic) of 29.2 µg/mL (≈ 81.9 µM). In the case of `Cc1ccc(CSc2nc3ccccc3c(=O)n2C)cc1`, the solubility (kinetic) is below 0.3 µg/mL. Next, `CCc1ccccc1NC(=O)N1CCc2ccccc2C1`: above 42.1 µg/mL; `COC(=O)CCN(C(=O)c1cccc([N+](=O)[O-])c1)c1ccccn1`: above 49.4 µg/mL.

Take `Cc1ccc(NC(=O)C2CCCN2C(=O)NC2CCCCC2)cc1` (centres undefined): the solubility (kinetic) amounted to 1.9 µg/mL (≈ 5.77 µM). Compound `NC(=S)NNc1cccc2cccnc12` yielded a solubility (kinetic) above 32.7 µg/mL. Next, `CC(CCc1ccccc1)NC(=O)CCC(=O)N1CCC(C(N)=O)CC1` (centres undefined): 48.7 µg/mL (≈ 135 µM). The same measure for `O=C(/C=C/c1ccccc1)OCN1C(=O)c2ccccc2C1=O`: 2.6 µg/mL (≈ 8.46 µM); for `Cc1ccccc1C1NC(c2ccccc2C)C(C)C(=O)C1C` (centres undefined): 7.7 µg/mL (≈ 25 µM); for `C=CCn1c(O)c(/C=C2\C=Nc3ccccc32)c(=O)[nH]c1=O`: 4 µg/mL (≈ 13.5 µM). Next, `CCN(Cc1cc(=O)[nH]c2ccccc12)C(=O)c1ccc(C)cc1`: 41.3 µg/mL (≈ 129 µM); `Cn1cnc(S(=O)(=O)NC2CCN(Cc3c(F)cccc3Cl)CC2)c1`: above 58 µg/mL.

Turning to `Cc1ccc(OCc2ccccc2Br)c([N+](=O)[O-])n1`, the kinetic solubility was 1.7 µg/mL (≈ 5.26 µM). As for `CCC(CC)C(=O)Nc1ccc(S(=O)(=O)Nc2nccs2)cc1`, the solubility (kinetic) is above 53 µg/mL. The compound `CC1(C)CC2CC(C)(CN2C(=S)Nc2ccccc2F)C1` (centres undefined) displayed a solubility (kinetic) of 44 µg/mL (≈ 144 µM).

`Cc1cccc(NC(=S)N2CCC(O)CC2)c1C`: the kinetic solubility came to 36.5 µg/mL (≈ 138 µM). As to `Cc1cc(Nc2ccc(F)c(F)c2)nc(-c2ccccc2O)n1`, the kinetic solubility was below 0.2 µg/mL. Turning to `FC(F)(F)c1ccccc1NC(=S)Nc1ccccc1`, the kinetic solubility came out at 21.6 µg/mL (≈ 72.9 µM). Regarding `CC(=O)Nc1ccc(S(=O)(=O)NCCCN2CCOCC2)cc1`, the kinetic solubility came out at 46.3 µg/mL (≈ 136 µM). Compound `O=C1CC(=O)N(c2cccc(F)c2)C(=O)N1` came in with a solubility (kinetic) above 33.3 µg/mL.

`CCN(C(=S)Nc1cccnc1)c1cccc2ccccc12` registered a solubility (kinetic) of 39.9 µg/mL (≈ 130 µM).

`CCC(=O)NC1OC(CO)C(O)C(O)C1O` (centres undefined) displayed a kinetic solubility above 35.3 µg/mL. The same measure for `O=C(COC(=O)CNC(=O)c1cccc(OC(F)F)c1)NCc1ccc2c(c1)OCO2`: 22 µg/mL (≈ 50.4 µM); for `COC(=O)c1ccc(-c2noc(CN(C)CC3CCCCO3)n2)cc1` (centres undefined): above 51.8 µg/mL; for `CC(=O)c1ccc(NC(=O)c2cc(=O)[nH]c3ccccc23)cc1`: 2 µg/mL (≈ 6.53 µM). `O=C(CN1C(=O)NC2(CCCC2)C1=O)N1CCN(c2ccccc2O)CC1` had a solubility (kinetic) above 55.9 µg/mL. The same measure for `O=C(NCCS(=O)(=O)N1CCCC1)c1ccccc1`: above 42.4 µg/mL; for `C=C(C)CN(CC)c1ccc(N2C(=O)CCCC2=O)cc1[N+](=O)[O-]`: 17.8 µg/mL (≈ 53.7 µM); for `N/C(CN1CCSCC1)=N\OCc1c(F)cccc1Cl`: 40.4 µg/mL (≈ 127 µM). In the case of `CC(C)(C)C(=O)NC(=O)Nc1ccccc1C(F)(F)F`, the kinetic solubility amounted to 3.3 µg/mL (≈ 11.4 µM).

For the compound `CCCCOc1ccc(C(=O)NN2CCOCC2)cc1`, the kinetic solubility is above 41.8 µg/mL. Next, `CC(=O)OCC(=O)Nc1ccccc1OC(F)F`: above 38.9 µg/mL; `COc1cc(-c2nnc(SCC(=O)Nc3ccc(C(=O)O)cc3)o2)cc(OC)c1OC`: above 66.8 µg/mL. `COC(=O)c1c(NC(=O)C(C)C)sc(C(=O)N2CCOCC2)c1C` returned a solubility (kinetic) above 53.2 µg/mL. The same measure for `COC(=O)CSc1nc(NC(C)C)nc(N(C)C)n1`: 36.6 µg/mL (≈ 128 µM); for `O=C(COc1ccccc1)Nc1ccc(F)cc1`: above 36.8 µg/mL; for `CC(C)(C)c1ccc(C(=O)NCC(=O)NCc2ccccn2)cc1`: 42.9 µg/mL (≈ 132 µM). Next, `Cn1cc(CCC(=O)NCc2cccc(Cl)c2)c2ccccc21`: 9.9 µg/mL (≈ 30.3 µM).

Compound `CC(=O)c1csc(COc2ccccc2)n1` had a kinetic solubility of 27.3 µg/mL (≈ 117 µM). The same measure for `Cc1ccc(C(=O)NCC(=O)Nc2ccc3c(c2)CCC3)cc1`: 3 µg/mL (≈ 9.73 µM); for `CC(C)(C)OC(=O)N1CCC(CNC(=O)c2cccs2)CC1`: 42.4 µg/mL (≈ 131 µM); for `CCCC(=NC(C)CC)C1=C(O)CC(c2ccccc2)CC1=O` (centres undefined): 39 µg/mL (≈ 124 µM). For `Fc1ccccc1NC(=S)NCc1ccc(Cl)cc1`, the kinetic solubility came to 11.2 µg/mL (≈ 38 µM). In the case of `O=C(NCC(=O)N1CCCCCCC1)c1ccco1`, the kinetic solubility is above 39.6 µg/mL. Next, `COc1cc(NC(=O)CCN2CC(C)OC(C)C2)cc(OC)c1` (centres undefined): 34.3 µg/mL (≈ 106 µM); `CCN1CCN(C(=O)/C=C/c2ccc(OC)c(OC)c2)CC1`: above 45.7 µg/mL; `Oc1ccc(/C=N/NC(=S)N2CCOCC2)cc1`: above 39.8 µg/mL. The same measure for `CC(=O)Nc1ccccc1C(F)(F)F`: 5.5 µg/mL (≈ 27.1 µM); for `CCC(C)c1ccc(NC(=O)COC(=O)C2CCCC2)cc1` (centres undefined): 8.8 µg/mL (≈ 29 µM); for `COc1cccc(-n2c(SCc3ccccn3)nc3c(c2=O)SCC3)c1`: 54.1 µg/mL (≈ 141 µM). The same measure for `CS(=O)(=O)c1ccc(Cl)c(NC(=O)CCN2C(=O)NC3(CCCC3)C2=O)c1`: above 62.1 µg/mL; for `O=C(NCC1CCCO1)c1ccc(COc2ccccc2)cc1` (centres undefined): above 46.7 µg/mL; for `Cc1cccc(N2CCN(C(=O)Cc3ccccc3[N+](=O)[O-])CC2)c1C`: 3.3 µg/mL (≈ 9.34 µM). As for `O=C(Cn1cc([N+](=O)[O-])ccc1=O)N1CCc2ccccc21`, the kinetic solubility worked out at 11.3 µg/mL (≈ 37.8 µM). Compound `Cc1cc([N+](=O)[O-])ccc1NC(=O)c1cc2ccccc2o1` yielded a solubility (kinetic) below 0.3 µg/mL.

In turn, `NS(=O)(=O)c1cc([N+](=O)[O-])ccc1NCc1cccnc1` yielded a solubility (kinetic) of 44.8 µg/mL (≈ 145 µM).

In turn, `Cc1c(C(=O)N2CCOCC2)cc(C(C)(C)C)n1-c1ccccc1` had a kinetic solubility of 45.3 µg/mL (≈ 139 µM).

The compound `C=CCN1CCN(C(=O)CSc2ccccc2)CC1` had a kinetic solubility above 41.5 µg/mL. On to `CN(C)CC/C=C1/c2ccccc2CS(=O)(=O)c2ccccc21`, for which the kinetic solubility was found to be 47.6 µg/mL (≈ 145 µM). For the compound `Nc1nc(Nc2ccccc2)nc(N2CCCC2)c1[N+](=O)[O-]`, the kinetic solubility was 27.6 µg/mL (≈ 91.9 µM). In the case of `Cc1ccnc(NC(=O)c2ccco2)n1`, the kinetic solubility is above 30.5 µg/mL. For the compound `CN(Cc1c(F)cccc1Cl)C(=O)c1cc2ccccc2o1`, the kinetic solubility was found to be 12.3 µg/mL (≈ 38.7 µM). In turn, `Cc1ccc(NC(=O)c2c(-c3ccccc3Cl)noc2C)nc1` had a solubility (kinetic) of 0.3 µg/mL (≈ 0.915 µM). As for `CCOc1ccc(C(CC(=O)O)NC(=O)C(CC)c2ccccc2)cc1` (centres undefined), the kinetic solubility is 47.9 µg/mL (≈ 135 µM). Regarding `Cc1cccc(OCCSc2nc(N)cc(N)n2)c1`, the kinetic solubility was above 41.5 µg/mL. The compound `Cc1ccc(/C([O-])=C(/C(=S)NCc2ccccc2)[n+]2ccccc2)cc1[N+](=O)[O-]` registered a solubility (kinetic) of 12 µg/mL (≈ 29.6 µM). The same measure for `C=CCSc1nc2ccccc2c(=O)n1C1CCOC(C)(C)C1` (centres undefined): 8.6 µg/mL (≈ 26 µM).

The record behind these values is PubChem BioAssay AID1996.
